Assays:
Rat white adipocytes = experiment: Inhibition of the differentiation of adipocytes (Oil Red O); format: cell-based; details: Rattus norvegicus, Adipocyte, 120 h, 100 nM test compound; 5 days; Oil Red O ABS550; control = 100%, blank = 0%; Table 3; read-out: Rate of Differentiation (%)
How it was run: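 Rat white preadipocytes, 5,000 cells/well, given differentiation medium with compound at 100 nM final (0.1% DMSO) for 5 days at 37 °C. Lipid stained with Oil Red O, eluted in DMSO, read at 550 nm; differentiation % relative to DMSO control (100%) and blank (0%).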

leptin production = experiment: Enhancing activity for leptin production in adipocytes (ELISA); format: cell-based, rat; details: Rattus norvegicus, Adipocyte, 24 h, leptin concentration as % of control group, read-out: Facilitating activity to produce leptin; for activity at 0.01 µM: 10 nm; for activity at 0.1 µM: 100 nm
How it was run: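 Leptin release, quantified by rat leptin ELISA, expressed as percent of 0.1% DMSO control after 24 h at 37 °C. Cells were floating adipocytes isolated by collagenase digestion of epididymal fat from male 6-week Wistar Imamichi rats; compound tested at 1 nM–1 µM final.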

## CCCCCCCCN(CCC)c1ccc(-c2ccc(NC(=O)c3cc([N+](=O)[O-])ccc3Cl)cc2)cc1 [Example 224, N-[4-[4-(N-Octyl-N-propylamino)phenyl]phenyl]-(2-chloro-5-nitrophenyl)carboxamide]
Rat white adipocytes
  activity at 0.1 µM: 40.9%
Leptin production
  activity at 1 µM: 113%
  activity at 0.01 µM: 110%
  activity at 0.1 µM: 112%

## CCCCCCCCN(CC)c1ccc(-c2ccc(NC(=O)c3cc([N+](=O)[O-])ccc3Cl)cc2)cc1 [Example 225, N-[4-[4-(N-Ethyl-N-octylamino)phenyl]phenyl]-(2-chloro-5-nitrophenyl)carboxamide]
Rat white adipocytes
  activity at 0.1 µM: 45.9%
Leptin production
  activity at 1 µM: 117%
  activity at 0.01 µM: 107%
  activity at 0.1 µM: 108%

## O=C(Nc1ccc(N2CCN(C(=O)c3ccncc3)CC2)cc1)c1cc([N+](=O)[O-])ccc1Cl [Example 228, N-[4-[4-(Pyridin-4-ylcarbonyl)piperazin-1-yl]phenyl]-(2-chloro-5-nitrophenyl)carboxamide]
Rat white adipocytes
  activity at 0.1 µM: 17.5%
Leptin production
  activity at 1 µM: 112%
  activity at 0.01 µM: 119%
  activity at 0.1 µM: 122%

## O=C(Nc1ccc(CCO)cc1)c1cc([N+](=O)[O-])ccc1Cl [Example 230, N-[4-(2-Hydroxyethyl)phenyl]-(2-chloro-5-nitrophenyl)carboxamide]
Rat white adipocytes
  activity at 0.1 µM: 48.9%
Leptin production
  activity at 0.01 µM: 110%

## O=C(Nc1ccc(-n2ccnc2)cc1)c1cccc(NC(=O)c2cc([N+](=O)[O-])ccc2Cl)c1 [Example 231, N-[[3-[4-(Imidazol-1-yl)phenyl]aminocarbonyl]phenyl]-(2-chloro-5-nitrophenyl)carboxamide]
Rat white adipocytes
  activity at 0.1 µM: 20.1%
Leptin production
  activity at 0.01 µM: 128%
  activity at 0.1 µM: 155%

## Nc1nc(-c2cccc(NC(=O)c3cc([N+](=O)[O-])ccc3Cl)c2)cs1 [Example 233, N-[3-(2-Amiothiazol-4-yl)phenyl]-(2-chloro-5-nitrophenyl)carboxamide]
Rat white adipocytes
  activity at 0.1 µM: 47.4%
Leptin production
  activity at 0.01 µM: 112%
  activity at 0.1 µM: 121%

## CS(=O)(=O)N(c1ccc(-c2ccc(NC(=O)c3cc([N+](=O)[O-])ccc3Cl)cc2)cc1)S(C)(=O)=O [Example 235, N-[4-[4-(N,N-Dimethanesulfonylamino)phenyl]phenyl]-(2-chloro-5-nitrophenyl)carboxamide]
Rat white adipocytes
  activity at 0.1 µM: 3.6%
Leptin production
  activity at 1 µM: 143%
  activity at 0.01 µM: 111%
  activity at 0.1 µM: 121%

## O=C(Nc1ccc(-c2ccc(NC(=S)Nc3ccncc3)cc2)cc1)c1cc([N+](=O)[O-])ccc1Cl [Example 258, N-[4-[4-[(Pyridin-4-yl)aminothiocarbonylamino]phenyl]phenyl]-(2-chloro-5-nitrophenyl)carboxamide]
Rat white adipocytes
  activity at 0.1 µM: 39%
Leptin production
  activity at 1 µM: 112%
  activity at 0.01 µM: 120%
  activity at 0.1 µM: 114%

## O=C(Nc1ccc(NC(=S)Nc2ccncc2)cc1)c1cc([N+](=O)[O-])ccc1Cl [Example 259, N-[4-[(Pyridin-4-yl)aminothiocarbonylamino]phenyl]-(2-chloro-5-nitrophenyl)carboxamide]
Rat white adipocytes
  activity at 0.1 µM: 56.5%
Leptin production
  activity at 0.01 µM: 111%
  activity at 0.1 µM: 110%

## NCCc1ccc(NC(=O)c2cc([N+](=O)[O-])ccc2Cl)cc1 [Example 267, N-[4-(2-Aminoethyl)phenyl]-(2-chloro-5-nitrophenyl)carboxamide]
Rat white adipocytes
  activity at 0.1 µM: 47.3%
Leptin production
  activity at 0.01 µM: 118%
  activity at 0.1 µM: 110%
